In patent publication EP0446604A2, “Pyridine and related aza heterocycle derivatives as cardiovascular agents” (AMERICAN CYANAMID COMPANY, priority 1990, dated 1991):
Counter-ions that a name gives are not always drawn.

Key:
[1] = system: spontaneously hypertensive rats of the Okamoto strain; assay: Hypotensive activity in spontaneously hypertensive rats (method of Chan and Poorvin); format: in vivo; settings: by gavage, 100 mg/kg or less, second identical dose 24 hours later, MABP measured 28 hours after initial dose, average MABP of the rats used 160±1.5 mm of mercury
Procedure: The novel compounds of the present invention are active hypotensive agents and were tested for hypotensive activity by the method of P.S. Chan and D. Poorvin, Clinical and Experimental Hypertension, 1 (6), 817-830 (1979). Male, 16 week old, spontaneously hypertensive rats of the Okamoto strain, from Taconic Farms, Germantown, New York, having an average mean arterial blood pressure of 160±1.5 mm of mercury, were used in the test. One to four rats were used per test compound. A rat is dosed by gavage with a test compound suspended in 2% pre-boiled starch at a concentration of 50 mg/ml, at a dose of 100 mg/kg of body weight or less, with 0.9% sodium chloride loading at a dose of 25 ml/kg of body weight. A second identical dose of the test compound, without sodium chloride loading is given 24 hours later. At 28 hours after the initial dose the mean arterial blood pressure (MABP) is measured. The procedure is repeated in a second and third rat when necessary. The results of this test on representative compounds of the present invention appear below in Table II.

[2] = target: T1, thromboxane synthetase enzyme (Rattus norvegicus, UniProt P49430); assay: Inhibition of thromboxane (TXB2) formation in washed rat platelets, TXB2 radioimmunoassay; format: biochemical, Okamoto-Aoki spontaneously hypertensive rats (SHR); settings: Concentration 1x10^-4M, platelet suspension incubated 10 minutes at 37 °C
T1 construct: from tissue; host or cells: washed blood platelets from Okamoto-Aoki spontaneously hypertensive rats (SHR)
T1 sequence (P49430 1-533): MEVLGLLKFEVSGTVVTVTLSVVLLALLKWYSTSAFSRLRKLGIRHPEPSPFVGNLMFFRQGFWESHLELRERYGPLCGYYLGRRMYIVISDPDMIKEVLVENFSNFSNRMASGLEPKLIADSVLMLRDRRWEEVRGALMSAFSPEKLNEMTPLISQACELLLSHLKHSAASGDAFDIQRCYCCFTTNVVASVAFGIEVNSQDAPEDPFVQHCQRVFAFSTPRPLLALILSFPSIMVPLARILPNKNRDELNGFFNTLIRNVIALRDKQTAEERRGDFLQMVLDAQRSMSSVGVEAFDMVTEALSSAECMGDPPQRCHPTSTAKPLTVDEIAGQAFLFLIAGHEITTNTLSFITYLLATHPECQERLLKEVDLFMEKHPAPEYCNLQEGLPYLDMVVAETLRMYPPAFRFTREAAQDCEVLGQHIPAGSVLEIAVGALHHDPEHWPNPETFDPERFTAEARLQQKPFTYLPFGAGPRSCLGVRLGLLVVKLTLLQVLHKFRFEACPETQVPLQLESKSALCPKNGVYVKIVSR
Procedure: Under urethan anesthesia, […] of arterial blood from Okamoto-Aoki spontaneously hypertensive rats (SHR) (Taconic Farms, Germantown, NY) between 19 and 24 weeks in age is collected in one ml of 3.2% sodium citrate in a polystyrene tube. The blood is diluted with 3 ml of cold saline and centrifuged at room temperature for 15 minutes at 460xg. The platelet rich plasma (PRP) is separated. The platelets are isolated by centrifuging the PRP for 10 minutes at 1060xg and are washed in 4 ml of cold oxygenated Krebs phosphate buffer, pH 7.4. The chilled platelets, recovered from centrifuging at 800xg for 10 minutes, are resuspended in oxygenated Krebs phosphate buffer and diluted to contain 4.5-6.0 x 10⁴ platelets/µ1. The inhibition of thromboxane (TX) formation is studied by determining the concentration of thromboxane B₂ (TXB₂), the stable hydrolysis product of TXA₂. Assay samples, prepared on ice, contain 200 µ1 platelet suspension, 50 µ1 saline, and 50 µ1 vehicle (saline) or drug under study. The samples are incubated for 10 minutes at 37 °C in a metabolic shaker. The reaction is terminated by immersing the tubes in an ice bath and adding 50 µl of 0.5M citric acid. The samples are centrifuged for 10 minutes in a refrigerated centrifuge and the supernatants thus obtained are decanted and stored at -20 °C. The TXB₂ content for each sample is determined by a direct radioimmunoassay (RIA) utilizing a TXB₂ specific RIA kit purchased from New England Nuclear, Boston, MA and expressed as pg TXB₂ formed per minute per sample, from which the percent inhibition of TXB₂ formation is calculated.

[3] = system: Male mice of the Swiss Webster Strain; assay: Calcium chloride-induced arrhythmia in anesthetized mice (survival); format: in vivo; settings: Mus musculus, iv, Dose = 10 mg/kg i.v.; calcium chloride 200 mg/kg i.v. bolus 5, 15 or 30 minutes after drug; observed 15 minutes; read-out: CaCl2 #Mice Surviving #Mice Tested (converted)
Source text: (§1) Intravenous administration of high doses of calcium or potassium chloride in animals produces cardiac arrhythmias, cardiac fibrillation and cardiac arrest. Any agent that can prevent these events is considered an antiarrhythmic/antifibrillatory agent. (Meth. and Find Exptl. Clin Pharmacol.2:223-252(1980); Pharmacol, Ther. 24:401-433 (1984); Experimental Cardiac and Antiarrhythmic Drugs, L. Szekeres and Gy. J. Dapp, Akademiai Kiado Preso, Budapest, 9-448 (1971).)
(§2) The method employed is as follows: Male mice of the Swiss Webster Strain (Charles River, Wilmington, MA) weighing 25-35 g are anesthetized with ethyl carbamate (urethan) (1.5g/kg body weight i.p.). A 25-gauge needle attached to PE-20 tubing is inserted into a caudal vein for drug administration. The lead II ECG is recorded by needle electrodes placed subcutaneously in the limbs. All data is collected on a Gould Brush recorder. Animals are observed 5 minutes before drug administration. A 5, 15, or 30 minute period following drug administration is allowed before the bolus injection of calcium chloride, 200 mg/kg i.v. or potassium chloride, 62.5 mg/kg i.v. Control mice receive 4 ml/kg of 0.9% sodium chloride i.v. Mice are observed an additional 15 minutes for arrhythmias, fibrillation, survival or death. Any compound at a dose of less than 20 mg/kg i.v. that protects 3 out of 6 mice from cardiac death in either the potassium or calcium chloride test, is considered active.

[4] = system: Male mice of the Swiss Webster Strain; assay: Potassium chloride-induced arrhythmia in anesthetized mice (survival); format: in vivo; settings: Mus musculus, iv, Dose = 10 mg/kg i.v.; potassium chloride 62.5 mg/kg i.v. bolus 5, 15 or 30 minutes after drug; observed 15 minutes; read-out: KCl #Mice Surviving #Mice Tested (converted)
Source text: as §1, §2

Compound | Avg. MABP in mm Hg (No. of Rats) ([1]; 100 mg/kg) | inhibition at 100 µM [2] [%] | Avg. MABP in mm Hg (No. of Rats) [1] | responders at 10 mg/kg [3] [%] | responders at 10 mg/kg [4] [%]
O=[N+]([O-])c1ccc(NCCCn2ccnc2)nc1 [Example 1, N-[3-(1H-Imidazol-1-yl)propyl]-5-nitro-2-pyridinamine,(Z)-2-butenedioate (1:1)] | 121 (4) mm Hg |  |  |  | 
O=[N+]([O-])c1cccnc1NCCCn1ccnc1 [Example 2, N-[3-(1H-Imidazol-1-yl)propyl]-3-nitro-2-pyridinamine] |  | 80 | 98 (2) mm Hg | 50 | 66.7
Cc1ccc(C#N)c(NCCCn2ccnc2)n1 [Example 3, 2-[[3-(1H-Imidazol-1-yl)propyl]amino]-6-methyl-3-pyridinecarbonitrile] |  | 79 | 80 (2) mm Hg |  | 
N#Cc1cccnc1NCCCn1ccnc1 [Example 4, 2-[[3-(1H-Imidazol-1-yl)propyl]amino]-3-pyridinecarbonitrile] |  | 93 | 117 (4) mm Hg | 66.7 | 16.7
c1ccc2nc(NCCCn3ccnc3)ccc2c1 [Example 5, N-[3-(1H-Imidazol-1-yl)propyl]-2-quinolinamine] |  | 93 | 97 (2) mm Hg | 83.3 | 50
Cc1cc(NCCCn2ccnc2)nc2ccccc12 [Example 6, N-[3-(1H-Imidazol-1-yl)propyl]-4-methyl-2-quinolinamine] |  | 98 | 100 (3) mm Hg |  | 
c1ccc2c(c1)nc(NCCCn1ccnc1)c1ccccc12 [Example 8, N-[3-(1H-Imidazol-1-yl)propyl]-6-phenanthridinamine] |  | 100 | 103 (2) mm Hg | 33.3 | 100
O=[N+]([O-])c1ccc(NCCCn2ccnc2)nc1 [Example 11, N-[3-(1H-imidazol-1-yl)propyl]-5-nitro-2-pyridinamine] | 119 (2) mm Hg |  |  | 0 | 50
c1ccc2c(NCCCn3ccnc3)nccc2c1 [Example 14, N-[3-(1H-Imidazol-1-yl)propyl]-1-isoquinolinamine] |  | 84 | 121 (3) mm Hg |  | 
COc1ccc2nc(NCCCn3ccnc3)cc(C)c2c1 [Example 21, N-[3-(1H-Imidazol-1-yl)propyl]-6-methoxy-4-methyl-2-quinolinamine] |  | 97 | 110 (2) mm Hg |  | 
Cc1nc(NCCCn2ccnc2)ccc1C#N [Example 30, 6-[[3-(1H-Imidazol-1-yl)propyl]amino]-2-methyl-3-pyridinecarbonitrile] |  | 94 | 61 (2) mm Hg | 16.7 | 100
c1cn(CCCNc2ccc3sccc3n2)cn1 [Example 62, N-[3-(1H-Imidazol-1-yl)propyl]thieno[3,2-b]-pyridin-5-amine] |  | 91 | 105 (2) mm Hg |  | 
N#Cc1cc2ccccc2nc1NCCCn1ccnc1 [Example 82, 2-[[3-(1H-Imidazol-1-yl)propyl]amino]-3-quinolinecarbonitrile] |  |  | 94 (2) mm Hg |  | 
Cc1cc(NCCC(C)n2ccnc2)nc2ccccc12 (centres unmarked) [Example 87, N-[3-(1H-Imidazol-1-yl)butyl]-4-methyl-2-quinolinamine] |  |  | 111 (2) mm Hg |  | 
Cc1ccc(C#N)c(NCCCCCn2ccnc2)n1 [Example 90, 2-[[5-(1H-Imidazol-1-yl)pentyl]amino]-6-methyl-3-pyridinecarbonitrile] |  |  | 116 (2) mm Hg | 0 | 50
Cc1cc(NCCCc2cccnc2)nc2ccccc12.Cl.Cl [Example 98, 4-Methyl-N-[3-(3-pyridinyl)propyl]-2-quinolinamine, dihydrochloride] |  |  | 95 (2) mm Hg | 83.3 | 83.3
Cc1cc(NCCCCn2ccnc2)nc2ccccc12 [Example 101, N-[4-(1H-Imidazol-1-yl)butyl]-4-methyl-2-quinolinamine] |  |  | 96 (2) mm Hg |  | 
Cc1cc(NCCCCc2cccnc2)nc2ccccc12 [Example 103, 4-Methyl-N-4-(3-pyridinylbutyl)-2-quinolinamine, dihydrochloride] |  |  | 87 (2) mm Hg |  | 
c1ccc2c(c1)nc(NCCCCn1ccnc1)c1ccccc12 [Example 104, N-[4-(1H-Imidazol-1-yl)butyl]-6-phenanthridinamine] |  |  | 93 (1) mm Hg |  | 
c1cncc(CCCCNc2nccc3ccccc23)c1 [Example 105, N-[4-(3-Pyridinyl)butyl]-1-isoquinolinamine, dihydrochloride] |  | 97 |  | 50 | 66.7
COc1ccc2nc(NCCCCc3cccnc3)cc(C)c2c1 [Example 106, 6-Methoxy-4-methyl-N-[4-(3-pyridinyl)butyl]-2-quinolinamine] |  | 97 | 120 (2) mm Hg |  | 
Cc1cc(NCCCCc2cccnc2)nc2c(C)cccc12 [Example 107, 4,8-Dimethyl-N-[4-(3-pyridinyl)butyl]-2-quinolinamine] |  | 99 |  | 0 | 83.3
Cc1ccc(C#N)c(NCCCCc2cccnc2)n1 [Example 108, 6-Methyl-2-[[4-(3-pyridinyl)butyl]amino]-3-pyridinecarbonitrile] |  | 96 |  | 66.7 | 83.3
